Data on one compound can be found in patent publication US20170369444A1, “INHIBITORS OF HISTONE DEMETHYLASES” (Gilead Sciences, Inc., priority 2014, published 2017).

In experiment [1] the test system is H3K4me3 mark in U2OS cells. The experiment in a line: Histone lysine demethylase immunofluorescence assay, non-transfected U2OS cells. It is filed as cell-based. As to conditions: Homo sapiens, 20 hours incubation, read-out: IC50 value, staining of the H3K4me3 mark in cells. On the procedure: Generally, the cells are incubated with compounds, washed and incubated with a methylation specific antibody before imaging. IC50 values are determined by measurement of the H3K4me3 staining.
Histone Lysine Demethylase Immunofluorescence Assays for IC50 value Determination, non-transfected cells
U2OS cells are harvested and seeded into multi well plates into media containing compound. The media is DMEM containing 5% FBS and pen/strep. 20 hours after incubation of cells with compounds, the cells are washed once in PBS, harvested by fixation with formaldehyde 4% aqueous solution, and washed in PBS. Subsequently, the cells are permeabilized in PBS with 0.2% Triton X-100. Blocking is performed in PBS with 0.2% Triton X-100 and 5% FBS. The cells are incubated with αH3K4me3 primary antibody (Cell Signaling, #9751S) in blocking solution over night at 4° C. After incubation with primary antibody, the cells are washed with PBS, incubated with secondary antibody (Alexa fluor 594 goat anti rabbit IgG, Invitrogen, A11012) and Hoechst, (Sigma, 33342) in blocking solution, and washed again with PBS. Finally, PBS is added and high throughput imaging and analysis are performed by an IN Cell Analyzer 1000 (GE Healthcare). IC50 values are determined based on an average measure of the staining of the H3K4me3 mark in cells.

Experiment [2] concerns the target T1, KDM4C (JMJD2C) (Homo sapiens, UniProt Q9H3R0).
T1 construct: 1-349; host or cells: E. coli
T1 sequence (Q9H3R0 1-349): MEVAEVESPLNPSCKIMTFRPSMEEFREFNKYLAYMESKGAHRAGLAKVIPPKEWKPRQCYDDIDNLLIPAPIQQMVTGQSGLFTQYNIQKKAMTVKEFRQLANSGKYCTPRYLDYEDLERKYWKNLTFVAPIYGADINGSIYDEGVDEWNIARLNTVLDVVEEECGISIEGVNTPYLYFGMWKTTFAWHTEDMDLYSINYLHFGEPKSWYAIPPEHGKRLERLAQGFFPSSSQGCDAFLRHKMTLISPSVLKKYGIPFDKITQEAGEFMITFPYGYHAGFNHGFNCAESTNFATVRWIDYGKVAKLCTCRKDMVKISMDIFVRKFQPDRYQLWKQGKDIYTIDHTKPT
The experiment can be described thus: Histone lysine demethylase AlphaLISA assay, KDM4C. The experiment is classed as biochemical. The conditions noted are these: in vitro enzyme, read-out: KDM4C IC50 (HDME Inhibition). In general terms: Alpha assays give light when donor and acceptor beads are brought close together.

In experiment [3] the target is T2, KDM2B (FBXL10) (Homo sapiens, UniProt Q8NHM5).
T2 construct: 1-650; purchased BPS Bioscience, US; host or cells: Bac (baculovirus/insect cells)
T2 sequence (Q8NHM5 1-650): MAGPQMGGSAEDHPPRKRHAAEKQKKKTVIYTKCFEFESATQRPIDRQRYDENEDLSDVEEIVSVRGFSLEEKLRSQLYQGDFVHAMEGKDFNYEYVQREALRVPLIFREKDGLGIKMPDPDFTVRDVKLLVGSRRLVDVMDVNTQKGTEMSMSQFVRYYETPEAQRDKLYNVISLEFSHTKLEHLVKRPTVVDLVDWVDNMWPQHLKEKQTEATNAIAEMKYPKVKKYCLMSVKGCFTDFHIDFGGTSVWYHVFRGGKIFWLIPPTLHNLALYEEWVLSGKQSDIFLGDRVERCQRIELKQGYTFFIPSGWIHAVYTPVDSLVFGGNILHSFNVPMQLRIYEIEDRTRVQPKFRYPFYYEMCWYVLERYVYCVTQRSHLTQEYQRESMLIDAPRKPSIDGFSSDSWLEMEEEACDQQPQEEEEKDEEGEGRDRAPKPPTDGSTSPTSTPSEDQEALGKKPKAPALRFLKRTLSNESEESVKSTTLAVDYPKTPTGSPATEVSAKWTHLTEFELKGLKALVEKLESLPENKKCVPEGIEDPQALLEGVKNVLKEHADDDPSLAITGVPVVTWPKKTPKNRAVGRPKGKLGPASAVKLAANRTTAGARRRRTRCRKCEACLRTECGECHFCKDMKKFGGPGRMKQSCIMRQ
The experiment can be described thus: Histone lysine demethylase AlphaLISA assay, KDM2B. It is filed as biochemical. As to conditions: in vitro enzyme, read-out: KDM2B IC50 (HDME Inhibition).

Experiment [4] has as its target T3, KDM5B (PLU-1) (Homo sapiens, UniProt Q9UGL1).
T3 construct: 1-809; host or cells: E. coli
T3 sequence (Q9UGL1 1-809): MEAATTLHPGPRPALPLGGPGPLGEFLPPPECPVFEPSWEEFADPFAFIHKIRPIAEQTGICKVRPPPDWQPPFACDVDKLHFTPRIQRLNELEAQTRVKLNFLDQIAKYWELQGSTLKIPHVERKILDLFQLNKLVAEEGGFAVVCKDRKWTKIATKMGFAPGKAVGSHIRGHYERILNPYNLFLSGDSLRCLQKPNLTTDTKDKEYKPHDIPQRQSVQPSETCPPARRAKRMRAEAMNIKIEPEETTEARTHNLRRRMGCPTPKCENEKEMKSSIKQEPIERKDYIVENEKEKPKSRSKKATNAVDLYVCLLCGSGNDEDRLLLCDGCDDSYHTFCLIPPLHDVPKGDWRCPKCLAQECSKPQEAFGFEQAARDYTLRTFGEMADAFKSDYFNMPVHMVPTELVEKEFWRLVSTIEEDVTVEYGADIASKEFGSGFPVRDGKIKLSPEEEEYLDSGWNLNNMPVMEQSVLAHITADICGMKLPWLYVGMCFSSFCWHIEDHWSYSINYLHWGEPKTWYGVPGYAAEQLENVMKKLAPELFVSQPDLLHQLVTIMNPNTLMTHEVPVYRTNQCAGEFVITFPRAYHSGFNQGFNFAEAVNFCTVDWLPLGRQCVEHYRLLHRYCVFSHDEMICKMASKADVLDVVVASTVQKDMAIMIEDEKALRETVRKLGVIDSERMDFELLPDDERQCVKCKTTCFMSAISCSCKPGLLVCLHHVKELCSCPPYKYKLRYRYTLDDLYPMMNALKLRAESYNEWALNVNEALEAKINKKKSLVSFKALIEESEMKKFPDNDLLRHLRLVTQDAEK
The experiment can be described thus: Histone lysine demethylase AlphaLISA assay, KDM5B. It is filed as biochemical. The conditions noted are these: in vitro enzyme, read-out: KDM5B IC50 (HDME Inhibition).

Structures are written as SMILES.

Turning to `O=C(N1CC2(CC2)COC1c1ccnc(CN2CCCn3ccnc3C2)c1)C(F)(F)F` (stereo not shown) [Compound 108, 2,2,2-trifluoro-1-[6-(2-{5H,6H,7H,8H,9H-imidazo[1,2-a][1,4]diazepin-8-ylmethyl}pyridin-4-yl)-5-oxa-7-azaspiro[2.5]octan-7-yl]ethan-1-one], the 50% inhibitory concentration (IC50) (commonly the concentration needed to halve the response being measured) in experiment [1] was less than 2500 nM; in experiment [2] it was 250 to 2500 nM; in experiment [3], 250 to 2500 nM; in experiment [4] it was less than 250 nM.
